# Reference: patent US11660319B2, “Compositions comprising bacterial strains” (priority 2017, dated 2023)
# What was measured:
# mouse Splenocytes = test: Spleen cytokine assay ex vivo (LPS or ConA stimulation); format: in vivo
# Method: Spleens were collected immediately in 5 mL RPMI media following sacrifice and cultured immediately. Spleen cells were first homogenised in this RPMI media, followed by 5 mins incubation with 1 ml of RBC lysis buffer (11814389001 ROCHE, Sigma). A further 10 ml of RPMI media was added, followed by 200G centrifugation for 5 mins. The supernatant was then filtered through 40 um strainer. Cells were counted and seeded (4,000,000/mL media). After 2.5 h of adaptation, cells were stimulated with lipopolysaccharide (LPS-2 μg/ml) or concanavalin A (ConA-2.5 μg/ml) for 24 h. Following stimulation, the supernatants were harvested to assess the cytokine release using Proinflammatory Panel 1 (mouse) V-PLEX Kit (Meso Scale Discovery, Maryland, USA) for TNFα, IL-10, IL-1β, Interferon γ, CXCL2 and IL6. The analyses were performed using MESO QuickPlex SQ 120, SECTOR Imager 2400, SECTOR Imager 6000, SECTOR S 600.
# The ex-vivo splenocyte assay involves challenging the splenocytes (cells isolated from the spleen—a main organ involved in immune defense), with a bacterio- or viral-mimetic challenge.
# BALBc mice [1] = test: Monoamine analysis in brainstem of mice fed with bacteria (HPLC); format: in vivo, mouse; settings: 1×10^9 CFU oral gavage 6 days
# Method: Neurotransmitter concentration was analysed by HPLC on samples from the brainstem. Briefly, brainstem tissue was sonicated in 500 μl of chilled mobile phase spiked with 4 ng/40 μl of N-Methyl 5-HT (Sigma Chemical Co., UK) as internal standard. The mobile phase contained 0.1 M citric acid, 5.6 mM octane-1-sulphonic acid (Sigma), 0.1 M sodium dihydrogen phosphate, 0.01 mM EDTA (Alkem/Reagecon, Cork) and 9% (v/v) methanol (Alkem/Reagecon) and was adjusted to pH 2.8 using 4 N sodium hydroxide (Alkem/Reagecon). Homogenates were then centrifuged for 15 min at 22,000×g at 4° C. and 40 μl of the supernatant injected onto the HPLC system which consisted of a SCL 10-Avp system controller, LECD 6A electrochemical detector (Shimadzu), a LC-10AS pump, a CTO-10A oven, a SIL-10A autoinjector (with sample cooler maintained at 40 C) and an online Gastorr Degasser (ISS, UK). A reverse-phase column (Kinetex 2.6 u C18 100×4.6 mm, Phenomenex) maintained at 30° C. was employed in the separation (Flow rate 0.9 ml/min). The glassy carbon working electrode combined with an Ag/AgCl reference electrode (Shimdazu) operated a +0.8 V and the chromatograms generated were analyzed using Class-VP 5 software (Shimadzu). The neurotransmitters were identified by their characteristic retention times as determined by standard injections, which run at regular intervals during the sample analysis. The ratios of peak heights of analyte versus internal standard were measured and compared with standard injection. Results were expressed as ng of neurotransmitter per g fresh weight of tissue.
# [2] = system: differentiated SHSY-5Y neuroblastoma cells; test: ROS generated by TBHP (DCFDA fluorescence); format: cell-based, human; settings: 100 uM TBHP, 10% bacteria supernatant, 2 h
# Method: SHSY-5Y cells were plated in black flat bottom 96 well plate at density of 5000 cells/well and placed in the CO2 incubator. After 24 h, media were replaced with differentiation medium (growth medium containing 1% FBS) and 10 μM retinoic acid. Differentiation medium was replaced every other day. On Day 10 the differentiation medium was removed and cells were washed with pre-warmed PBS and stained with 10 uM DCFDA molecular probe for 20 mins in growth medium containing 1% FBS. Then cells were washed with pre-warmed PBS again and treated with 100 uM TBHP in the presence or absence of 10% bacteria supernatant for 2 h. Fluorescence intensity was measured using TECAN plate reader at Ex/Em 485/530 nm.
# SHSY5Y = test: Neurite outgrowth: microscopy and MAP2 gene expression (qPCR); format: cell-based, human
# Method: SHSY5Y were plated in 10 cm petri dishes a density of 2×10^6 cells. After 24 h cells were treated in differentiation medium (growth medium containing 1% FBS without RA) with 10% bacteria supernatants or YCFA+, 10 uM RA, 200 uM hexanoic acid or 200 uM valproic acid, for 17 hrs. There after representative images were taken using phase contrast EVOS XL core microscope at 40×/0.65 magnification. Cells were collected, and total RNA was isolated according to RNeasy mini kit protocol (Qiagen). cDNAs were made using the high capacity cDNA reverse transcription kit (Applied Biosystems). Gene expression was measured using qPCR. GAPDH was used as internal control. Fold change was calculated according to the 2^(−ΔΔct) method.
# Cells were seeded onto 8 well chamber slides (Marienfeld Laboratory Glassware) at 5×10^4 cells/well overnight and were treated with 10% bacterial supernatant for 24 hrs. For differentiation, cells were treated with 10 nM Retinoic acid for 5 days before treating with bacterial supernatant. Cells were then fixed with 4% paraformaldehyde in PBS for 20 minutes at room temperature (RT). Fixed cells were washed with PBS, and permeabilized with 1% Triton X-100 in PBS for 10 minutes. After washing with PBS, the slides were incubated with blocking buffer (4% BSA/PBS) for 1 hr at RT before adding anti-MAP2 antibody (sc-74421, Santa Cruz Biotechnology Inc) diluted in 1% BSA/PBS for 12 hr at 4° C. They were then washed twice with PBS, followed by incubation with Alexa Flour 488 conjugated anti-mouse (Molecular Probes Inc) and Alexa Flour 594 conjugated Phalloidin (ab 176757, Abcam) for 1 hr at RT. After washing 3× with PBS, the slides were mounted with Vectorshield[…] containing DAPI (Sigma, Aldrich). Slides were viewed using a Zeiss Axioscope microscope equipped with a 63×/1.2 W Korr objective and filter sets suitable for detection of the fluorochromes used. Manual exposure times for the digital acquisition of images immuno-labelled with MAP-2 were kept constant allowing comparison between different wells and treatments. Phalloidin (F-actin) and DAPI exposure times varied to suit the field of view. Randomised fields of view were acquired using a QImaging camera controlled by Image Pro Plus software. Images were saved as TIFs and opened in Adobe Photoshop CC 2015.1.2 and overlays of the MAP-2, DAPI and Phalloidion images overlaid and merged. Representative images were selected to illustrate the differences in abundance and location of the proteins examined
# BALBc mice [3] = test: Ex vivo gene expression in colon and ileum of mice fed with bacteria; parameters: species or system mouse
# Method: Animals were allowed to habituate to their holding room for one week after arrival into the animal unit. They receive oral gavage (200 μL dose) of live biotherapeutics at a dose of 1×10^9 CFU for 6 consecutive days between 15:00 and 17:00. On day 7, the animals are decapitated, and tissues are harvested for experimentation. The in vitro results were compared with data from the ex vivo parallel analysis on the gut of mice fed with […] expression of TJP2 and occludin was quantified in the colon and ileum. […] Total RNA was extracted using the mirVanaTM miRNA Isolation kit (Ambion/Llife technologies, Paisley, UK) and DNase treated (Turbo DNA-free, Ambion/life technologies) according to the manufacturers recommendations. RNA was quantified using NanoDropTM spectrophotometer (Thermo Fisher Scientific Inc., Wilmington, Del., USA) according to the manufacturer's instructions. RNA quality was assessed using the Agilent Bioanalyzer (Agilent, Stockport, UK) according to the manufacturer's procedure and an RNA integrity number (RIN) was calculated. […] RNA was reverse transcribed to cDNA using the Applied Biosystems High Capacity cDNA kit (Applied Biosystems, Warrington, UK) according to manufacturer's instructions. Briefly, Multiscribe Reverse Transcriptase (50 U/μL) (1)(2)(1)(10) was added as part of RT master mix, incubated for 25° C. for 10 min, 37° C. for 2 h, 85° C. for 5 min and stored at 4° C. Quantitative PCR was carried out using probes (6 carboxy fluorescein-FAM) designed by Applied Biosystems to mouse specific targeted genes, while using β-actin as an endogenous control. Amplification reactions contained 1 μl cDNA, 5 μl of the 2× PCR Master mix (Roche), 900 nM of each primer and were brought to a total of 10 μl by the addition of RNase-free water. All reactions were performed in triplicate using 96-well plates on the LightCycler®480 System. Thermal cycling conditions were as recommended by the manufacturer (Roche) for 55 cycles. To check for amplicon contamination, each run contained no template controls in triplicate for each probe used. Cycle threshold (Ct) values were recorded. Data was normalized using β-actin and transformed using the 2-ΔΔCT method and presented as a fold change vs. control group.
substance,measurement,setting,value
Megasphaera massiliensis [MRx0029],interleukin-6 in splenocytes,mouse Splenocytes; challenge with LPS,reduction
same,interleukin-113 in splenocytes,mouse Splenocytes; challenge with LPS,reduction
same,levels of interferon-γ in splenocytes,mouse Splenocytes; challenge with LPS,reduction
same,levels of the chemoattractant CXCL1,mouse Splenocytes; splenocytes,increase
same,5-HIAA in brain,BALBc mice [1],slight increase
same,serotonin in brain,BALBc mice [1],slight increase
same,noradrenaline levels in brain,BALBc mice [1]; p=0.0507,increased
same,ROS production,[2],inhibit
same,neurite outgrowth / neuron-like phenotype,"SHSY5Y; undifferentiated SHSY-5Y cells, 10% bacteria supernatant, 200 uM hexanoic acid or 200 uM valproic acid, 17 hrs",induced a neuron-like phenotype
same,MAP2 expression,"SHSY5Y; undifferentiated neuroblastoma cells, qPCR, GAPDH internal control",significantly upregulates
same,expression tryptophan hydroxylase-1 (Tph1),BALBc mice [3]; colon,significantly increase
same,TJP1 expression in colon,BALBc mice [3]; colon region of the murine intestine,significantly up-regulate
same,Occludin expression in colon,"BALBc mice [3]; colon region of the murine intestine, p=0.073",significantly up-regulate
